Measured values taken from US8952024B2, “Herbicidal pyrimidone derivatives” (E I du Pont de Nemours and Company, priority 2009, dated 2015).

Columns and labels:
Assay type in all cases: in vivo
[1] = system: morningglory (Ipomoea spp.); assay: Test A pre-/postemergence plant response
Description: (§1) Seeds of barnyardgrass (Echinochloa crus-galli), large crabgrass (Digitaria sanguinalis), giant foxtail (Setaria faberii), morningglory (Ipomoea spp.), pigweed (Amaranthus retroflexus), velvetleaf (Abutilon theophrasti), wheat (Triticum aestivum) and corn (Zea mays) were planted into a blend of loam soil and sand and treated preemergence with a directed soil spray using test chemicals formulated in a non-phytotoxic solvent mixture which included a surfactant. At the same time these species were also treated with postemergence applications of test compounds formulated in the same manner.
(§2) Plants ranged in height from two to ten cm and were in the one- to two-leaf stage for the postemergence treatment. Treated plants and untreated controls were maintained in a greenhouse for approximately ten days, after which time all treated plants were compared to untreated controls and visually evaluated for injury. Plant response ratings, summarized in Table A, are based on a 0 to 100 scale where 0 is no effect and 100 is complete control. A dash (-) response means no test result.

[2] = system: corn (Zea mays); assay: Test A pre-/postemergence plant response
Description: as §1, §2

[3] = system: barnyardgrass (Echinochloa crus-galli); assay: Test A pre-/postemergence plant response
Description: as §1, §2

[4] = system: wheat (Triticum aestivum); assay: Test A pre-/postemergence plant response
Description: as §1, §2

[5] = system: large crabgrass (Digitaria sanguinalis); assay: Test A pre-/postemergence plant response
Description: as §1, §2

[6] = system: velvetleaf (Abutilon theophrasti); assay: Test A pre-/postemergence plant response
Description: as §1, §2

[7] = system: giant foxtail (Setaria faberii); assay: Test A pre-/postemergence plant response
Description: as §1, §2

[8] = system: pigweed (Amaranthus retroflexus); assay: Test A pre-/postemergence plant response
Description: as §1, §2

[9] = system: rice (Oryza sativa); assay: Test B flooded paddy test; conditions: for Plant response rating, Flood, Rice: 250 g ai/ha, flooded paddy test, visual rating on 0 to 100 scale (0 no effect, 100 complete control) after 13 to 15 days; for Plant response rating, Rice: Flood (flooded paddy test), 13 to 15 days; for Rice plant response rating: Flood, 31 g ai/ha, scale 0 to 100 (0 no effect, 100 complete control)
How it was run: (§3)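 Visual scores run from 0 (no effect) to 100 (complete control), assigned by comparison with controls 13 to 15 days after treatment. Test compounds went straight into water standing 3 cm above the soil, around plants at the 2-leaf stage kept in a greenhouse.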

[10] = system: umbrella sedge (Cyperus difformis); assay: Test B flooded paddy test; conditions: for Plant response rating, Flood, Sedge, Umbrella: 250 g ai/ha, flooded paddy test, visual rating on 0 to 100 scale (0 no effect, 100 complete control) after 13 to 15 days; for Plant response rating, Sedge, Umbrella: Flood (flooded paddy test), 13 to 15 days; for Sedge, Umbrella plant response rating: Flood, 31 g ai/ha, scale 0 to 100 (0 no effect, 100 complete control)
How it was run: as §3

[11] = system: barnyardgrass (Echinochloa crus-galli); assay: Test B flooded paddy test; conditions: for Plant response rating, Flood, Barnyardgrass: 250 g ai/ha, flooded paddy test, visual rating on 0 to 100 scale (0 no effect, 100 complete control) after 13 to 15 days; for Plant response rating, Barnyardgrass: Flood (flooded paddy test), 13 to 15 days; for Barnyardgrass plant response rating: Flood, 31 g ai/ha, scale 0 to 100 (0 no effect, 100 complete control)
How it was run: as §3

[12] = system: ducksalad (Heteranthera limosa); assay: Test B flooded paddy test; conditions: for Plant response rating, Flood, Ducksalad: 250 g ai/ha, flooded paddy test, visual rating on 0 to 100 scale (0 no effect, 100 complete control) after 13 to 15 days; for Plant response rating, Ducksalad: Flood (flooded paddy test), 13 to 15 days; for Ducksalad plant response rating: Flood, 31 g ai/ha, scale 0 to 100 (0 no effect, 100 complete control)
How it was run: as §3

[13] = Postemergence, 125 g ai/ha, 0 to 100 scale where 0 is no effect and 100 is complete control
[14] = Postemergence, 500 g ai/ha, visual injury, 0 to 100 scale (0 no effect, 100 complete control), approx. ten days
[15] = Preemergence, 125 g ai/ha, 0 to 100 scale, 0 = no effect, 100 = complete control
[16] = Preemergence, 500 g ai/ha, 0 to 100 scale, 0 = no effect, 100 = complete control
[17] = 62 g ai/ha, scale of 0 to 100 where 0 is no effect and 100 is complete control
[18] = 125 g ai/ha, scale 0 to 100, 0 is no effect, 100 is complete control
[19] = Postemergence, 500 g ai/ha, 0 to 100 scale, 0 = no effect, 100 = complete control, approx. ten days
[20] = Preemergence, 500 g ai/ha, visual injury, 0 to 100 scale (0 no effect, 100 complete control), approx. ten days

COc1cccc(-c2ncc(C(=O)C3=C(O)CCCC3=O)c(=O)n2C2CCCCC2)c1 [Compound 196]
Plant response rating, Morningglory [1, 13]: 100 | Morningglory plant response rating [1, 14]: 100 | Plant response rating, Morningglory [1, 15]: 0 | Plant response rating, Morningglory [1, 16]: 40 | Plant response rating, Corn [2, 13]: 10 | Corn plant response rating [2, 14]: 40 | Plant response rating, Corn [2, 15]: 0 | Plant response rating, Corn [2, 16]: 20 | Plant response rating, Barnyardgrass [3, 13]: 80 | Barnyardgrass plant response rating [3, 14]: 90 | Plant response rating, Barnyardgrass [3, 15]: 0 | Plant response rating, Barnyardgrass [3, 16]: 50 | Plant response rating, Wheat [4, 13]: 0 | Wheat plant response rating [4, 14]: 30 | Plant response rating, Wheat [4, 15]: 0 | Plant response rating, Wheat [4, 16]: 20 | Plant response rating, Crabgrass, Large [5, 13]: 50 | Crabgrass, Large plant response rating [5, 14]: 90 | Plant response rating, Crabgrass, Large [5, 15]: 0 | Plant response rating, Crabgrass, Large [5, 16]: 70 | Plant response rating, Velvetleaf [6, 13]: 100 | Velvetleaf plant response rating [6, 14]: 100 | Plant response rating, Velvetleaf [6, 15]: 0 | Plant response rating, Velvetleaf [6, 16]: 50 | Plant response rating, Foxtail, Giant [7, 13]: 70 | Foxtail, Giant plant response rating [7, 14]: 100 | Plant response rating, Foxtail, Giant [7, 15]: 0 | Plant response rating, Foxtail, Giant [7, 16]: 80 | Plant response rating, Pigweed [8, 13]: 80 | Pigweed plant response rating [8, 14]: 100 | Plant response rating, Pigweed [8, 15]: 0 | Plant response rating, Pigweed [8, 16]: 30 | Plant response rating, Flood, Rice [9]: 65 | Plant response rating, Rice [9, 17]: 0 | Plant response rating, Rice [9, 18]: 40 | Rice plant response rating [9]: 0 | Plant response rating, Flood, Sedge, Umbrella [10]: 80 | Plant response rating, Sedge, Umbrella [10, 17]: 30 | Plant response rating, Sedge, Umbrella [10, 18]: 75 | Sedge, Umbrella plant response rating [10]: 20 | Plant response rating, Flood, Barnyardgrass [11]: 30 | Plant response rating, Barnyardgrass [11, 17]: 0 | Plant response rating, Barnyardgrass [11, 18]: 20 | Barnyardgrass plant response rating [11]: 0 | Plant response rating, Flood, Ducksalad [12]: 95 | Plant response rating, Ducksalad [12, 17]: 60 | Plant response rating, Ducksalad [12, 18]: 95 | Ducksalad plant response rating [12]: 40

COCCn1c(-c2cccc(Br)c2)ncc(C(=O)C2=C(O)CCCC2=O)c1=O [Compound 139]
Plant response rating, Morningglory [1, 13]: 100 | Plant response rating, Morningglory [1, 19]: 100 | Plant response rating, Morningglory [1, 15]: 0 | Plant response rating, Morningglory [1, 20]: 80 | Plant response rating, Corn [2, 13]: 20 | Plant response rating, Corn [2, 19]: 40 | Plant response rating, Corn [2, 15]: 0 | Plant response rating, Corn [2, 20]: 20 | Plant response rating, Barnyardgrass [3, 13]: 60 | Plant response rating, Barnyardgrass [3, 19]: 80 | Plant response rating, Barnyardgrass [3, 15]: 40 | Plant response rating, Barnyardgrass [3, 20]: 90 | Plant response rating, Wheat [4, 13]: 20 | Plant response rating, Wheat [4, 19]: 40 | Plant response rating, Wheat [4, 15]: 0 | Plant response rating, Wheat [4, 20]: 10 | Plant response rating, Crabgrass, Large [5, 13]: 70 | Plant response rating, Crabgrass, Large [5, 19]: 80 | Plant response rating, Crabgrass, Large [5, 15]: 90 | Plant response rating, Crabgrass, Large [5, 20]: 100 | Plant response rating, Velvetleaf [6, 13]: 100 | Plant response rating, Velvetleaf [6, 19]: 100 | Plant response rating, Velvetleaf [6, 15]: 60 | Plant response rating, Velvetleaf [6, 20]: 90 | Plant response rating, Foxtail, Giant [7, 13]: 50 | Plant response rating, Foxtail, Giant [7, 19]: 80 | Plant response rating, Foxtail, Giant [7, 15]: 20 | Plant response rating, Foxtail, Giant [7, 20]: 70 | Plant response rating, Pigweed [8, 13]: 90 | Plant response rating, Pigweed [8, 19]: 100 | Plant response rating, Pigweed [8, 15]: 70 | Plant response rating, Pigweed [8, 20]: 100 | Plant response rating, Flood, Rice [9]: 30 | Plant response rating, Rice [9, 17]: 10 | Plant response rating, Flood, Sedge, Umbrella [10]: 85 | Plant response rating, Sedge, Umbrella [10, 17]: 70 | Plant response rating, Flood, Barnyardgrass [11]: 35 | Plant response rating, Barnyardgrass [11, 17]: 10 | Plant response rating, Flood, Ducksalad [12]: 90 | Plant response rating, Ducksalad [12, 17]: 75

C#CCn1c(-c2cc(F)cc(F)c2)ncc(C(=O)C2=C(O)CCCC2=O)c1=O [Compound 170]
Plant response rating, Morningglory [1, 13]: 100 | Morningglory plant response rating [1, 14]: 100 | Plant response rating, Morningglory [1, 15]: 0 | Plant response rating, Morningglory [1, 16]: 70 | Plant response rating, Corn [2, 13]: 20 | Corn plant response rating [2, 14]: 30 | Plant response rating, Corn [2, 15]: 0 | Plant response rating, Corn [2, 16]: 0 | Plant response rating, Barnyardgrass [3, 13]: 40 | Barnyardgrass plant response rating [3, 14]: 90 | Plant response rating, Barnyardgrass [3, 15]: 0 | Plant response rating, Barnyardgrass [3, 16]: 60 | Plant response rating, Wheat [4, 13]: 0 | Wheat plant response rating [4, 14]: 20 | Plant response rating, Wheat [4, 15]: 0 | Plant response rating, Wheat [4, 16]: 20 | Plant response rating, Crabgrass, Large [5, 13]: 60 | Crabgrass, Large plant response rating [5, 14]: 90 | Plant response rating, Crabgrass, Large [5, 15]: 10 | Plant response rating, Crabgrass, Large [5, 16]: 70 | Plant response rating, Velvetleaf [6, 13]: 100 | Velvetleaf plant response rating [6, 14]: 100 | Plant response rating, Velvetleaf [6, 15]: 10 | Plant response rating, Velvetleaf [6, 16]: 80 | Plant response rating, Foxtail, Giant [7, 13]: 50 | Foxtail, Giant plant response rating [7, 14]: 80 | Plant response rating, Foxtail, Giant [7, 15]: 10 | Plant response rating, Foxtail, Giant [7, 16]: 70 | Plant response rating, Pigweed [8, 13]: 80 | Pigweed plant response rating [8, 14]: 100 | Plant response rating, Pigweed [8, 15]: 30 | Plant response rating, Pigweed [8, 16]: 50 | Plant response rating, Rice [9, 18]: 20 | Rice plant response rating [9]: 15 | Plant response rating, Sedge, Umbrella [10, 18]: 35 | Sedge, Umbrella plant response rating [10]: 0 | Plant response rating, Barnyardgrass [11, 18]: 30 | Barnyardgrass plant response rating [11]: 0 | Plant response rating, Ducksalad [12, 18]: 45 | Ducksalad plant response rating [12]: 0
